Read-outs that look alike come from different tables or passages of the source.
Key:
S. cerevisiae = assay: in vitro; details: Saccharomyces cerevisiae
Text: (§1) These tests included an IL-12 mouse model test to determine compound efficacy, verification of MIC50 for CP, cytotoxicity test for fibroblasts and yeast to determine potential toxic effects, a Human ether-a-go-go-related gene (hERG) test to determine potential cardiotoxicity, an AMES test tp determine mutagenic potential, a Safety Screen 44 test to determine common negative off-target drug interastion (Eurofins Cerep, SA, France), a cytochrome P450 (CYP) test to determine potential liver toxicity, a maximum tolerated dose, test, a Pharmacokinetics (PK) test to determine fate of the substance administered to a living organism tests for plasma stability in human and mouse, to measure the degradation of compound in plasma MClint and HClint test to determine in vitro intrinsic clearance for Mouse and Human, and kinetic solubility and plasma protein binding tests in mouse and human.

human fibroblast = assay: in vitro
Text: as §1

For `COC(=O)C(C)(C)Oc1ccc(Oc2cnc3cc(Cl)ccc3n2)cc1` [NZ-314, methyl 2-{4-[(6-chloroquinoxalin-2-yl)oxy]phenoxy}-2-methylpropanoate], the “concentrations at which not toxic, S. cerevisiae cytotoxicity testing” value (S. cerevisiae) was ≥ 100 µM and the “concentrations at which not toxic, human fibroblast cytotoxicity testing” value (human fibroblast; human) was ≥ 100 µM.

In the case of `CCNC(=O)COc1ccc(Oc2cnc3cc(Cl)ccc3n2)cc1` [NZ-306, 2-{4-[(6-chloroquinoxalin-2-yl)oxy]phenoxy}-N-ethylacetamide], the “concentrations at which not toxic, S. cerevisiae cytotoxicity testing” value (S. cerevisiae) is reported as ≥ 100 µM and the “concentrations at which not toxic, human fibroblast cytotoxicity testing” value (human fibroblast) is reported as ≥ 100 µM.

For `CNC(=O)Cc1ccc(Oc2nc3ccc(F)cc3s2)cc1` [NZ-385, 2-{4-[(6-fluoro-1,3-benzothiazol-2-yl)oxy]phenyl}-N-methylacetamide], the “concentrations at which not toxic, S. cerevisiae cytotoxicity testing” value (S. cerevisiae) was ≥ 100 µM and the “concentrations at which not toxic, human fibroblast cytotoxicity testing” value (human fibroblast) was ≥ 100 µM.

With `O=C(O)COc1ccc(Oc2nc3ccc(F)cc3s2)cc1` [NZ-304, 2-{4-[(6-fluoro-1,3-benzothiazol-2-yl)oxy]phenoxy}acetic acid] the “concentrations at which not toxic, S. cerevisiae cytotoxicity testing” value (S. cerevisiae) was ≥ 100 µM and the “concentrations at which not toxic, human fibroblast cytotoxicity testing” value (human fibroblast; human) was ≥ 100 µM.

`CC(C)NC(=O)Nc1ccc(Oc2nc3c(F)cccc3s2)cc1` [NZ-374, 1-{4-[(4-fluoro-1,3-benzothiazol-2-yl)oxy]phenyl}-3-(propan-2-yl)urea] was tested, and the “concentrations at which not toxic, S. cerevisiae cytotoxicity testing” value (S. cerevisiae) was ≥ 100 µM and the “concentrations at which not toxic, human fibroblast cytotoxicity testing” value (human fibroblast; human) was ≥ 100 µM.

For `CC(=O)Nc1ccc(Oc2nc3ccc(F)cc3s2)cc1` [NZ-420, N-{4-[(6-fluoro-1,3-benzothiazol-2-yl)oxy]phenyl}acetamide], the “concentrations at which not toxic, S. cerevisiae cytotoxicity testing” value (S. cerevisiae) was ≥ 100 µM and the “concentrations at which not toxic, human fibroblast cytotoxicity testing” value (human fibroblast; human) was ≥ 100 µM.

In the case of `CONC(=O)Cc1ccc(Oc2nc3ccc(Cl)cc3s2)cc1` [NZ-293, 2-{4-[(6-chloro-1,3-benzothiazol-2-yl)oxy]phenyl}-N-methoxyacetamide], the “concentrations at which not toxic, S. cerevisiae cytotoxicity testing” value (S. cerevisiae) is reported as ≥ 100 µM and the “concentrations at which not toxic, human fibroblast cytotoxicity testing” value (human fibroblast; human) is reported as ≥ 100 µM.

For `O=C(COc1ccc(Oc2cnc3cc(Cl)ccc3n2)cc1)NOCC1CC1` [NZ-323, 2-{4-[(6-chloroquinoxalin-2-yl)oxy]phenoxy}-N-(cyclopropylmethoxy)acetamide], the “concentrations at which not toxic, S. cerevisiae cytotoxicity testing” value (S. cerevisiae) was ≥ 100 µM and the “concentrations at which not toxic, human fibroblast cytotoxicity testing” value (human fibroblast) was ≥ 100 µM.

With `CC(C)(Oc1ccc(Oc2cnc3cc(Cl)ccc3n2)cc1)C(=O)O` [NZ-315, 2-{4-[(6-chloroquinoxalin-2-yl)oxy]phenoxy}-2-methylpropanoic acid] the “concentrations at which not toxic, S. cerevisiae cytotoxicity testing” value (S. cerevisiae) was ≥ 100 µM and the “concentrations at which not toxic, human fibroblast cytotoxicity testing” value (human fibroblast) was ≥ 100 µM.

In the case of `CC(C)NC(=O)Cc1ccc(Oc2nc3cc(F)c(F)cc3s2)cc1O` [NZ-407, 2-{4-[(5,6-difluoro-1,3-benzothiazol-2-yl)oxy]-2-hydroxyphenyl}-N-(propan-2-yl)acetamide], the “concentrations at which not toxic, S. cerevisiae cytotoxicity testing” value (S. cerevisiae) is reported as ≥ 100 µM and the “concentrations at which not toxic, human fibroblast cytotoxicity testing” value (human fibroblast; human) is reported as ≥ 100 µM.

With `CONC(=O)C(C)(C)Oc1ccc(Oc2cnc3cc(Cl)ccc3n2)cc1` [NZ-316, 2-{4-[(6-chloroquinoxalin-2-yl)oxy]phenoxy}-N-methoxy-2-methylpropanamide] the “concentrations at which not toxic, S. cerevisiae cytotoxicity testing” value (S. cerevisiae) was ≥ 100 µM and the “concentrations at which not toxic, human fibroblast cytotoxicity testing” value (human fibroblast; human) was ≥ 100 µM.

`O=C(O)Cc1c(F)cc(Oc2nc3ccc(Cl)cc3s2)cc1F` [NZ-458, 2-{4-[(6-chloro-1,3-benzothiazol-2-yl)oxy]-2,6-difluorophenyl}acetic acid] was tested, and the “concentrations at which not toxic, S. cerevisiae cytotoxicity testing” value (S. cerevisiae) was ≥ 100 µM and the “concentrations at which not toxic, human fibroblast cytotoxicity testing” value (human fibroblast; human) was ≥ 100 µM.

In the case of `COc1ccc2nc(Oc3ccc(NC(=O)NC(C)C)cc3)sc2c1` [NZ-361, 1-{4-[(6-methoxy-1,3-benzathiazol-2-yl)oxy]phenyl}-3-(propan-2-yl)urea], the “concentrations at which not toxic, S. cerevisiae cytotoxicity testing” value (S. cerevisiae) is reported as ≥ 100 µM and the “concentrations at which not toxic, human fibroblast cytotoxicity testing” value (human fibroblast; human) is reported as ≥ 100 µM.

In the case of `O=C(O)Cn1ccc(Oc2nc3ccc(F)cc3s2)cc1=O` [NZ-418, 2-{4-[(6-fluoro-1,3-benzothiazol-2-yl)oxy]-2-oxo-1,2-dihydropyridin-1-yl}acetic acid], the “concentrations at which not toxic, S. cerevisiae cytotoxicity testing” value (S. cerevisiae) is reported as ≥ 100 µM and the “concentrations at which not toxic, human fibroblast cytotoxicity testing” value (human fibroblast; human) is reported as ≥ 100 µM.

For `CNC(=O)Cc1ccc(Oc2nc3ccc(Cl)cc3s2)cc1` [NZ-383], the “concentrations at which not toxic, S. cerevisiae cytotoxicity testing” value (S. cerevisiae) was ≥ 100 µM and the “concentrations at which not toxic, human fibroblast cytotoxicity testing” value (human fibroblast) was ≥ 100 µM.

`CC(C)NC(=O)Cc1ccc(Oc2nc3ccc(F)cc3s2)cc1O` [NZ405, 2-{4-[(6-fluoro-1,3-benzothiazol-2-yl)oxy]-2-hydroxyphenyl}-N-(propan-2-yl)acetamide] was tested, and the “concentrations at which not toxic, S. cerevisiae cytotoxicity testing” value (S. cerevisiae) was ≥ 100 µM and the “concentrations at which not toxic, human fibroblast cytotoxicity testing” value (human fibroblast) was ≥ 100 µM.

`CC(C)NC(=O)Nc1ccc(Oc2nc3ccc(C(F)(F)F)cc3s2)cc1` [NZ-379, 3-(propan-2-yl)-1-(4-{[6-(trifluoromethyl)-1,3-benzothiazol-2-yl]oxy}phenyl)urea] was tested, and the “concentrations at which not toxic, S. cerevisiae cytotoxicity testing” value (S. cerevisiae) was ≥ 100 µM and the “concentrations at which not toxic, human fibroblast cytotoxicity testing” value (human fibroblast; human) was ≥ 100 µM.

In the case of `CC(C)NC(=O)Nc1ccc(Oc2nc3ccc(S(C)(=O)=O)cc3s2)cc1` [NZ-380, 1-{4-[(6-methanesulfonyl-1,3-benzothiazol-2-yl)oxy]phenyl}-3-(propan-2-yl)urea], the “concentrations at which not toxic, S. cerevisiae cytotoxicity testing” value (S. cerevisiae) is reported as ≥ 100 µM and the “concentrations at which not toxic, human fibroblast cytotoxicity testing” value (human fibroblast; human) is reported as ≥ 100 µM.

`O=C(O)Cc1ccc(Oc2nc3cc(F)c(F)cc3s2)cc1` [NZ-399, 2-{4-[(5,6-difluoro-1,3-benzothiazol-2-yl)oxy]phenyl}acetic acid] was tested, and the “concentrations at which not toxic, S. cerevisiae cytotoxicity testing” value (S. cerevisiae) was ≥ 100 µM and the “concentrations at which not toxic, human fibroblast cytotoxicity testing” value (human fibroblast) was ≥ 100 µM.

With `CON(C)C(=O)COc1ccc(Oc2cnc3cc(Cl)ccc3n2)cc1` [NZ-290, 2-{4-[(6-chloroquinoxalin-2-yl)oxy]phenoxy}-N-methoxy-N-methylacetamide] the “concentrations at which not toxic, S. cerevisiae cytotoxicity testing” value (S. cerevisiae) was ≥ 100 µM and the “concentrations at which not toxic, human fibroblast cytotoxicity testing” value (human fibroblast) was ≥ 100 µM.

With `COC(=O)C(C)c1ccc(Oc2cnc3cc(Cl)ccc3n2)cc1` (stereo not drawn) [NZ-308, methyl 2-{4-[(6-chloroquinoxalin-2-yl)oxy]phenyl}propanoate] the “concentrations at which not toxic, S. cerevisiae cytotoxicity testing” value (S. cerevisiae) was ≥ 100 µM and the “concentrations at which not toxic, human fibroblast cytotoxicity testing” value (human fibroblast; human) was ≥ 100 µM.

In the case of `CNC(=O)Cn1ccc(Oc2nc3ccc(F)cc3s2)cc1=O` [NZ-419, 2-{4-[(6-fluoro-1,3-benzothiazol-2-yl)oxy]-2-oxo-1,2-dihydropyridin-1-yl}-N-methylacetamide], the “concentrations at which not toxic, S. cerevisiae cytotoxicity testing” value (S. cerevisiae) is reported as ≥ 100 µM and the “concentrations at which not toxic, human fibroblast cytotoxicity testing” value (human fibroblast; human) is reported as ≥ 100 µM.

With `CC(C(=O)N1CCN(C(C)C)CC1)c1ccc(Oc2nc3ccc(Cl)cc3s2)cc1` (stereo not drawn) [NZ-510, 2-{4-[(6-chloro-1,3-benzothiazol-2-yl)oxy]phenyl}-1-[4-(propan-2-yl]piperazin-1-yl]propan-1-one] the “concentrations at which not toxic, S. cerevisiae cytotoxicity testing” value (S. cerevisiae) was ≥ 100 µM and the “concentrations at which not toxic, human fibroblast cytotoxicity testing” value (human fibroblast; human) was ≥ 100 µM.

`CC(C)(C)OC(=O)Nc1ccc(Oc2nc3ccc(F)cc3s2)cc1` [NZ-412, tert-butyl N-{4-[(6-fluoro-1,3-benzothiazol-2-yl)oxy]phenyl}carbamate] was tested, and the “concentrations at which not toxic, S. cerevisiae cytotoxicity testing” value (S. cerevisiae) was ≥ 100 µM and the “concentrations at which not toxic, human fibroblast cytotoxicity testing” value (human fibroblast; human) was ≥ 100 µM.

In the case of `CNC(=O)C(C)c1ccc(Oc2nc3cc(Cl)c(Cl)cc3s2)cc1` (stereo not drawn) [NZ-394, 2-{4-[(5,6-dichloro-1,3-benzothiazol-2-yl)oxy]phenyl}-N-methylpropanamide], the “concentrations at which not toxic, S. cerevisiae cytotoxicity testing” value (S. cerevisiae) is reported as ≥ 100 µM and the “concentrations at which not toxic, human fibroblast cytotoxicity testing” value (human fibroblast; human) is reported as ≥ 100 µM.

For `CC(C)(C)OC(=O)NCC(=O)Nc1ccc(Oc2nc3ccc(F)cc3s2)cc1` [NZ-415, tert-butyl N-[({4-[(6-fluoro-1,3-benzothiazol-2-yl)oxy]phenyl}carbamoyl)methyl]carbamate], the “concentrations at which not toxic, S. cerevisiae cytotoxicity testing” value (S. cerevisiae) was ≥ 100 µM and the “concentrations at which not toxic, human fibroblast cytotoxicity testing” value (human fibroblast; human) was ≥ 100 µM.

For `CNC(=O)C(C)c1ccc(Oc2nc3ccc(F)cc3s2)cc1O` (stereo not drawn) [NZ-408, 2-{4-[(6-fluoro-1,3-benzothiazol-2-yl)oxy]-2-hydroxyphenyl}-N-methylpropanamide], the “concentrations at which not toxic, S. cerevisiae cytotoxicity testing” value (S. cerevisiae) was ≥ 100 µM and the “concentrations at which not toxic, human fibroblast cytotoxicity testing” value (human fibroblast; human) was ≥ 100 µM.

For `CCOC(=O)[C@@H](C)Oc1ccc(Oc2nc3ccc(Cl)cc3o2)cc1` [fenoxaprop-p-ethyl, ethyl (2R)-2-{4-[(6-chloro-1,3-benzoxazol-2-yl)oxy]phenoxy}propanoate, reference compound], the “concentrations at which not toxic, human fibroblast cytotoxicity testing” value (human fibroblast; human) was ≥ 100 µM.

`C[C@@H](Oc1ccc(Oc2nc3ccc(Cl)cc3o2)cc1)C(=O)O` [fenoxaprop-p, (R)-2-[4-(6-chlorobenzoxazol-2-yloxy)phenoxy]propionic acid, reference compound] was tested, and the “concentrations at which not toxic, human fibroblast cytotoxicity testing” value (human fibroblast) was ≥ 100 µM.

With `CC(C)NC(=O)Nc1ccc(Oc2ccc3cc(Cl)ccc3n2)cc1` [NZ-346, 1-{4-[(6-chloroquinolin-2-yl)oxy]phenyl}-3-(propan-2-yl)urea] the “concentrations at which not toxic, human fibroblast cytotoxicity testing” value (human fibroblast) was ≥ 100 µM.

— US11083717B2, “Compositions and methods for drug sensitization of parasites” (The Texas A&M University System, priority 2015, dated 2021)
